{"source": "patent US5866548A", "about": "“Caged membrane-permeant inositol phosphates” (priority 1996, dated 1999)", "key": {"[1]": {"tested_on": "1321N1 astrocytoma cells", "assay": "[Ca2+]i response before and after UV uncaging, fluo-3", "format": "cell-based", "method": "(b) Same experiment as (a) except done in Ca^2+ free medium (DPBS, O Ca^2+, 0.5 mM EGTA). UV exposure of the cells treated with IP3 -CPM still gave the same response, showing that the [Ca^2+ ]i increase resulted from the release of Ca^2+ from internal stores. […] The cells were loaded with fluo-3/AM. During the experiment the cells were bathed in HBS buffered with 20 mM Hepes at pH 7.4 and supplemented with 2 g/L glucose.\nThe [Ca^2+ ]i was monitored using the calcium indicator fluo-3 rather than fura-2 to keep the excitation wavelength of the indicator (490 nm) far from the uncaging wavelength (360 nm) of DMNB group. […] Compared to the photolyzing set-up (direct illumination by a hand mercury lamp) used for the IP3 -binding assay, the optical throughput from the source lamp to the specimen is much higher in a microscope, so 10 seconds (as opposed to 2 hours in IP3 binding assay) of photolysis was sufficient to produce enough IP3 to elicit [Ca^2+ ]i increase. The same amount of UV alone had no effect at all on [Ca^2+ ]i in cells not treated with IP3 -CPM. After recovering from uncaging of IP3 -CPM, the cells responded to subsequent carbachol and thapsigargin stimulation normally.\nThis confirmed that the [Ca^2+ ]i increase due to uncaging of IP3 -CPM resulted from internal Ca^2+ release, which was consistent with the normal mechanism of IP3 action."}, "[2]": {"tested_on": "human embryonic kidney cells (HEK cells)", "assay": "[Ca2+]i response on flash photolysis of loaded cells", "format": "cell-based", "method": "In human embryonic kidney cells (HEK cells), the extracellular IP3 -CPM was washed away after the cells had been loaded with 50 μM of IP3 -CPM for 20 minutes. […] Cells in the same dish which had not been exposed to UV light were kept in the dark for over 6 hours. […] However, pretreatment of IP3 -CPM with acetic acid will unmask the 3-hydroxyl and enable the intracellular phosphorylation of delivered IP3."}, "[3]": {"tested_on": "1321N1 astrocytoma cells", "assay": "[Ca2+]i response before and after UV uncaging, fluo-3", "format": "cell-based", "details": "with extracellular Ca2+"}, "[4]": {"assay": "Chemical stability", "format": "physicochemical"}, "[5]": {"tested_on": "P388D1 macrophage-like cells", "assay": "[Ca2+]i response before and after UV uncaging, fluo-3", "format": "cell-based", "details": "for [Ca2+]i after UV (360 nm, 10 s): 20 μM", "method": "The cells were loaded with fluo-3/AM. During the experiment the cells were bathed in HBS buffered with 20 mM Hepes at pH 7.4 and supplemented with 2 g/L glucose.\nAnother example was carried out in P388D1 macrophage-like cells.\nStudies by Asmis et al. (92) have shown that, in P388D1 macrophage-like cells, PAF stimulated PGE2 production is mediated through two separate signals: IP3 induced [Ca^2+ ]i increase and another unidentified signal. IP3 -CPM might serve as a new tool for detailed study of PGE2 formation and AA release in relation to IP3 and [Ca^2+ ]i in these cells. One of the major advantages of using permeant IP3 derivatives is that experiments can be easily carried out in a population of cells, which is required for the measurement of AA release and PGE2 formation."}, "[6]": {"assay": "Membrane permeability", "format": "in vitro ADME"}, "[7]": {"tested_on": "intestinal cell line T84", "assay": "cells", "format": "cell-based", "details": "for EC50: 0.2 h, T84, ISC 12 min after addition, read-out: EC50 (chloride secretion)", "text": "A convenient test system is the intestinal cell line T84, in which chloride secretion can be continuously monitored by mounting confluent monolayers of cells in Ussing chambers (42)."}, "[8]": {"target": "cAMP-dependent kinase type I (FICRhR) (Bos taurus, UniProt P00514)", "sequence (P00514 whole entry)": "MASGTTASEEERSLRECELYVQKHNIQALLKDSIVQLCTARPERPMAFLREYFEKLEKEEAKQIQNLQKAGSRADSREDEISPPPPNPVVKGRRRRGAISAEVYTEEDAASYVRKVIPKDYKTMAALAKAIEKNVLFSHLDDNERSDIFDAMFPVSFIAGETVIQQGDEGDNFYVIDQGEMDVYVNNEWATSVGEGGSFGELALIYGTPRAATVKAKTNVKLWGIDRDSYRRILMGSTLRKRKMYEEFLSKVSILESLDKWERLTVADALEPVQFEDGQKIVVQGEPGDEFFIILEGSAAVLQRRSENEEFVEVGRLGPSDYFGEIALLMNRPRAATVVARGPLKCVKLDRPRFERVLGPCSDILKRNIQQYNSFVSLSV", "format": "biochemical", "text": "When PKA is doubly labeled with fluorescein on its catalytic subunits and rhodamine on its regulatory subunits to produce FICRhR, fluorescence energy transfer from the fluorescein to rhodamine occurs in the holoenzyme complex but is disrupted upon activation and dissociation of the subunits. The change in the ratio of fluorescein to rhodamine emissions parallels the increase in kinase activity and can be nondestructively imaged in single cells. REF-52 fibroblasts were microinjected with FICRhR and emission ratio images recorded at room temperature as previously described (27)."}, "[9]": {"tested_on": "cAMP-dependent protein kinase (PKA)", "format": "cell-based"}, "[10]": {"tested_on": "angelfish melanophores", "assay": "Pigment dispersion in fish dermal melanophores", "format": "cell-based, angelfish (Pterophyllum scalare)", "details": "for reversibility of dispersion: removal of compound and epinephrine", "method": "Melanophores permit a visual single-cell assay for the ability of cAMP analogs to enter cells and mimic cAMP actions. The melanophores were isolated on angelfish scales and the epidermis was stripped off. […] Dispersion was just detectable at 1 μM and half-maximal near 10 μM (FIG. 3A). […] The preceding examples are summarized in (64)."}, "[11]": {"details": "20 μM extracellular, about/over 5 min"}}, "note": "“Also recorded” adds a separate entry of the source."}
{"smiles": "CCC(=O)OCOP(=O)(OCOC(=O)CC)O[C@@H]1[C@@H](OCc2cc(OC)c(OC)cc2[N+](=O)[O-])[C@H](OP(=O)(OCOC(=O)CC)OCOC(=O)CC)[C@@H]2OC(OC)O[C@@H]2[C@H]1OP(=O)(OCOC(=O)CC)OCOC(=O)CC", "note": "(stereo partly drawn) [IP3 -CPM, D-2,3-O-methoxymethylene-6-O-(4,5-dimethoxy-2-nitrobenzyl)-myo-Inositol 1,4,5-trisphosphate hexakis(propionyloxymethyl)ester]", "values": [{"measurement": "[Ca2+]i before UV", "setting": "[1]; [11]", "result": "no effect on [Ca^2+ ]i"}, {"measurement": "[Ca2+]i after UV (360 nm, 10 s)", "setting": "[1]; 20 μM, Ca2+ free medium (0.5 mM EGTA), listed as IP3 -CPM (V-1)", "result": "same response"}, {"measurement": "extracellular concentration eliciting maximal Ca2+ release upon uncaging", "setting": "[1]; 1321N1 astrocytoma cells", "result": "10^-6 to 10^-5 M"}, {"measurement": "[Ca2+]i time course after uncaging", "setting": "[1]; Ca2+ free medium", "result": "soon went back to the resting level"}, {"measurement": "[Ca2+]i on photolysis (1 ms flash)", "setting": "[2]; loaded 50 μM, 20 min, washed", "result": "transient increase in [Ca^2+ ]i"}, {"measurement": "persistence of [Ca2+]i response to repeated flashes", "setting": "[2]; loaded 50 μM, 20 min, washed", "result": "persisted for up to a dozen repetitions"}, {"measurement": "[Ca2+]i on photolysis after dark storage", "setting": "[2]; over 6 hours in the dark after loading", "result": "[Ca^2+ ]i increases similar to those obtained immediately after being loaded; also recorded: full-scale [Ca^2+ ]i increases"}, {"measurement": "[Ca2+]i after UV (360 nm, 10 s)", "setting": "[3]; 20 μM", "result": "almost saturating [Ca^2+ ]i increase"}, {"measurement": "[Ca2+]i time course after uncaging", "setting": "[3]", "result": "remained elevated above the resting level"}, {"measurement": "chemical stability vs commercially available caged IP3", "setting": "[4]", "result": "chemically more stable"}, {"measurement": "[Ca2+]i time course after uncaging", "setting": "[5]", "result": "went back to the basal level in a short time"}, {"measurement": "[Ca2+]i after UV (360 nm, 10 s)", "setting": "[5]", "result": "released a fair amount of Ca^2+ from internal stores"}, {"measurement": "[Ca2+]i before UV", "setting": "[5]; [11]", "result": "no effect on [Ca^2+ ]i"}, {"measurement": "[Ca2+]i after UV (360 nm, 10 s)", "setting": "[5]; listed as IP3 -CPM (V-1)", "result": "big [Ca^2+ ]i increase"}, {"measurement": "membrane permeability (in words)", "setting": "[6]", "result": "crossed the cell membrane"}]}
{"smiles": "CCCC(=O)Nc1ncnc2c1ncn2[C@@H]1O[C@@H]2COP(=O)(O)O[C@H]2[C@H]1OC(=O)CCC", "note": "[Bt2 cAMP, N^6,O^2' -dibutyryl cAMP, reference compound]", "values": [{"measurement": "EC50", "setting": "[7]", "result": 400, "unit": "µM"}, {"measurement": "potency relative to cAMP", "setting": "[8]; in vitro binding to FICRhR", "result": "roughly 1/100"}, {"measurement": "delay and overall time course of PKA activation (in words)", "setting": "[9]; REF-52, extracellular", "result": "Much the same delay and overall time course"}, {"measurement": "pigment dispersion", "setting": "[10]; 1 mM", "result": "unable to cause any detectable dispersion"}, {"measurement": "membrane permeability (in words)", "setting": "[6]", "result": "poor permeability"}]}
{"smiles": "CCCC(=O)Nc1ncnc2c1ncn2[C@@H]1O[C@@H]2COP(=O)(OCOC(C)=O)O[C@H]2[C@H]1OC(=O)CCC", "note": "(some centres unmarked) [Bt2 cAMP/AM, N^6,O^2' -Dibutyryl Adenosine 3',5'-cyclic Monophosphate Acetoxymethyl Ester]", "values": [{"measurement": "EC50", "setting": "[7]", "result": 2, "unit": "µM"}, {"measurement": "increase in potency by acetoxymethyl group vs Bt2 cAMP", "setting": "[7]; T84", "result": 200, "unit": "fold"}, {"measurement": "kinetics of activation of chloride secretion (in words)", "setting": "[7]; T84, Bt2 cAMP/AM vs Bt2 cAMP", "result": "essentially indistinguishable kinetics of activation"}, {"measurement": "separation of the subunits of FICRhR (in words)", "setting": "[8]; in vitro, 10 μM", "result": "no separation of the subunits"}, {"measurement": "onset of separation of regulatory and catalytic subunit of FICRhR after addition", "setting": "[9]; REF-52, extracellular", "result": "roughly 2 min"}, {"measurement": "plateau, % of the maximal change in fluorescence ratio", "setting": "[9]; REF-52, extracellular 1 μM", "result": "over 50%"}, {"measurement": "change in fluorescence ratio (PKA activation)", "setting": "[9]; REF-52, extracellular 10 μM, within 15 min", "result": "maximal change in fluorescence ratio within 15 min"}, {"measurement": "increase in potency by AM ester group vs Bt2 cAMP", "setting": "[10]", "result": "more than 1000"}, {"measurement": "pigment dispersion", "setting": "[10]; 100 μM", "result": "essentially complete dispersal"}, {"measurement": "reversibility of dispersion", "setting": "[10]; 100 μM", "result": "easily reversed"}, {"measurement": "reversibility of dispersion", "setting": "[10]; 1 mM", "result": "could not be readily reversed"}, {"measurement": "onset of dispersion", "setting": "[10]; 1 mM, vs 100 μM", "result": "slightly faster onset of action"}]}
